The values that follow come from patent US8030354B2, “Substituted biphenyl GPR40 modulators” (Amgen Inc., priority 2007, dated 2011).

Some results are limits rather than exact numbers.

For experiment [1], the target named is T1, GPR40 (Homo sapiens, UniProt O14842). The experiment is described as follows: Inositol phosphate accumulation assay (A9_GPR40 cells). Type of experiment: cell-based. The arrangement: expressed in transfected cells; host or cells: CHO cells stably transfected with GPR40 and aequorin. The note with it: inositol phosphate assay, A9_GPR40 cells, 1 hour; read-out: IP3 EC50. Summed up:
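[^3H] inositol phosphate accumulation was measured by SPA after 1 h compound exposure at 37° C in HBSS/10 mM LiCl containing HSA, ending with a 20 mM formic acid quench. The GPR40-transfected A9 cells had first been labelled overnight (16 h) with 1 μCi/mL ^3H-inositol.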

In experiment [2] the target is T1, GPR40. The experiment is described as follows: Cell-based aequorin assay (CHO cells stably expressing GPR40 and aequorin). Also on record: expressed in transfected cells; host or cells: CHO cells stably transfected with GPR40 and aequorin. The note with it: activation of human GPR40, CHO cells, 0.01% HSA. A digest of the protocol: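 CHO cells stably co-expressing GPR40 and aequorin, loaded with coelenterazine (1 ug/mL, 2 h, room temperature) in H/HBSS with 20 mM Hepes and 0.01% fatty acid-free HSA. Serially diluted compounds added; luminescence recorded over 20 s. EC50 from dose-response of maximum relative light units.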

T1 sequence (O14842 whole entry): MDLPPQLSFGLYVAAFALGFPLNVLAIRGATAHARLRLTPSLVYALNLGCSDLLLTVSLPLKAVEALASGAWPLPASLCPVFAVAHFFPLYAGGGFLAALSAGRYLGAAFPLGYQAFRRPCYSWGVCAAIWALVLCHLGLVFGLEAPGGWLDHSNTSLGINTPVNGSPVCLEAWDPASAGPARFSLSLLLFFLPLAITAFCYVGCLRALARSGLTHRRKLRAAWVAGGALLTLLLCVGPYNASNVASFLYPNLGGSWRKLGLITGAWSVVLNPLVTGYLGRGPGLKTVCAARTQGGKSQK

With `COc1ccc(F)c(-c2ccc(COc3cccc(C(CC(=O)O)CC4CC4)c3F)cc2C(OC)C(C)(C)C)c1` (single isomer, unassigned) [Example 84.2], the results for the EC50 on GPR40 [1] and on GPR40 [2] were below 10 nM and 100 to 1000 nM, respectively.
With `COc1ccc(F)c(-c2ccc(COc3cccc(C(CC(=O)O)CC4CC4)c3F)cc2C2CCCC2(C)C)c1` (single isomer, unassigned) [Example 84.3], the EC50 at GPR40 [1] is below 10 nM; at GPR40 [2], 100 to 1000 nM.
The corresponding values for `COc1ccc(F)c(-c2cc(F)c(COc3cccc(C(CC(=O)O)CC4CC4)c3F)cc2C2CCCC2(C)C)c1` (single isomer, unassigned) [Example 84.4] are below 10 nM and 100 to 1000 nM.
Consider `COc1ccc(F)c(-c2ccc(COc3cccc(C(CC(=O)O)CC4CC4)c3F)cc2C2=CCCC2(C)C)c1` (single isomer, unassigned) [Example 84.5, (3R)-4-Cyclopropyl-3-(3-(((2-(5,5-dimethyl-1-cyclopenten-1-yl)-2′-fluoro-5′-(methyloxy)-1,1′-biphenyl-4-yl)methyl)oxy)-2-fluorophenyl)butanoic acid or (3S)-4-cyclopropyl-3-(3-(((2-(5,5-dimethyl-1-cyclopenten-1-yl)-2′-fluoro-5′-(methyloxy)-1,1′-biphenyl-4-yl)methyl)oxy)-2-fluorophenyl)butanoic acid], for which the EC50 at GPR40 [1] is 10 to 100 nM; at GPR40 [2], 100 to 1000 nM.
Regarding `COc1ccc(F)c(-c2ccc(COc3cccc(C(CC(=O)O)CC4CC4)c3F)cc2C2CCCCC2(C)C)c1` (single isomer, unassigned) [Example 84.6], the 50% effective concentration (EC50) at GPR40 [1] is below 10 nM; at GPR40 [2] it was 100 to 1000 nM.
For `COc1ccc(F)c(-c2ccc(COc3cccc(C(CC(=O)O)CC4CC4)c3F)cc2C(F)C(C)(C)C)c1` (single isomer, unassigned) [Example 84.7], the EC50 was below 10 nM on GPR40 [1] and 10 to 100 nM at GPR40 [2].
`COc1cc(-c2ccc(COc3cccc(C(CC(=O)O)CC4CC4)c3F)cc2C2CCCC2(C)C)c(F)cn1` (single isomer, unassigned) [Example 84.8]: the EC50 was below 10 nM on GPR40 [1] and 100 to 1000 nM on GPR40 [2].
On to `COc1cc(-c2ccc(COc3cccc(C(CC(=O)O)CC4CC4)c3F)cc2C(OC)C(C)(C)C)c(F)cn1` (single isomer, unassigned) [Example 84.9], for which the EC50 was below 10 nM on GPR40 [1] and 100 to 1000 nM at GPR40 [2].
As for `COc1ccc(F)c(-c2ccc(COc3cccc(C(C)(C)CC(=O)O)c3)cc2C2CCCC2(C)C)c1` (single isomer, unassigned) [Example 85.3, 3-(3-(((2-((1R)-2,2-Dimethylcyclopentyl)-2′-fluoro-5′-(methyloxy)-1,1′-biphenyl-4-yl)methyl)oxy)phenyl)-3-methylbutanoic acid or 3-(3-(((2-((1S)-2,2-dimethylcyclopentyl)-2′-fluoro-5′-(methyloxy)-1,1′-biphenyl-4-yl)methyl)oxy)phenyl)-3-methylbutanoic acid], the EC50 at GPR40 [1] is 10 to 100 nM; on GPR40 [2] it was 100 to 1000 nM.
Turning to `COc1cc(-c2ccc(COc3cccc(C(C)(C)CC(=O)O)c3)cc2C2CCCC2(C)C)c(F)cn1` (single isomer, unassigned) [Example 85.4, 3-{3-[3-((S)-2,2-Dimethyl-cyclopentyl)-4-(5-fluoro-2-methoxy-pyridin-4-yl)-benzyloxy]-phenyl}-3-methyl-butyric acid or 3-{3-[3-((R)-2,2-dimethyl-cyclopentyl)-4-(5-fluoro-2-methoxy-pyridin-4-yl)-benzyloxy]-phenyl}-3-methyl-butyric acid], the EC50 on GPR40 [1] fell in the range of 10 to 100 nM; at GPR40 [2], 100 to 1000 nM.
On to `COc1cc(-c2cc(F)c(COc3cccc(C(C)(C)CC(=O)O)c3)cc2C2CCCC2(C)C)c(F)cn1` (single isomer, unassigned) [Example 85.5, 3-(3-(((5-((1S)-2,2-Dimethylcyclopentyl)-2-fluoro-4-(5-fluoro-2-(methyloxy)-4-pyridinyl)phenyl)methyl)oxy)phenyl)-3-methylbutanoic acid or 3-(3-(((5-((1R)-2,2-dimethylcyclopentyl)-2-fluoro-4-(5-fluoro-2-(methyloxy)-4-pyridinyl)phenyl)methyl)oxy)phenyl)-3-methylbutanoic acid], for which the EC50 was 10 to 100 nM at GPR40 [1] and 100 to 1000 nM at GPR40 [2].
For the molecule `COc1cc(-c2ccc(COc3cccc(C(C)(C)CC(=O)O)c3)cc2C(OC)C(C)(C)C)c(F)cn1` (single isomer, unassigned) [Example 85.6, 3-(3-(((3-((1S)-2,2-Dimethyl-1-(methyloxy)propyl)-4-(5-fluoro-2-(methyloxy)-4-pyridinyl)phenyl)methyl)oxy)phenyl)-3-methylbutanoic acid or 3-(3-(((3-((1R)-2,2-dimethyl-1-(methyloxy)propyl)-4-(5-fluoro-2-(methyloxy)-4-pyridinyl)phenyl)methyl)oxy)phenyl)-3-methylbutanoic acid], the EC50 on GPR40 [1] is 10 to 100 nM; on GPR40 [2] it was 100 to 1000 nM.
For the molecule `CCC(CC(=O)O)c1ccc(F)c(OCc2ccc(-c3cc(OC)ccc3F)c(C3=CCCC3(C)C)c2)c1` (single isomer, unassigned) [Example 86.1, (3R)-3-(3-(((2-(5,5-Dimethyl-1-cyclopenten-1-yl)-2′-fluoro-5′-(methyloxy)-1,1′-biphenyl-4-yl)methyl)oxy)-4-fluorophenyl)pentanoic acid or (3S)-3-(3-(((2-(5,5-dimethyl-1-cyclopenten-1-yl)-2′-fluoro-5′-(methyloxy)-1,1′-biphenyl-4-yl)methyl)oxy)-4-fluorophenyl)pentanoic acid], the EC50 on GPR40 [1] and at GPR40 [2] was 100 to 1000 nM throughout.
Turning to `CC[C@H](CC(=O)O)c1ccc(C)c(OCc2ccc(-c3cc(OC)ccc3F)c(C(C)(C)C)c2)c1` (single isomer, unassigned) [Example 87], the EC50 on GPR40 [1] and on GPR40 [2] was 100 to 1000 nM each time.
Regarding `CCC(CC(=O)O)c1cc(F)cc(OCc2ccc(-c3cc(OC)ccc3F)c(C3CCCC3(C)C)c2)c1` (single isomer, unassigned) [Example 88.1], the EC50 at GPR40 [1] is below 10 nM; at GPR40 [2], 10 to 100 nM.
Turning to `CCC(CC(=O)O)c1cc(F)cc(OCc2ccc(-c3cc(OC)ccc3F)c(C3=CCCC3(C)C)c2)c1` (single isomer, unassigned) [Example 88.2, (3R)-3-(3-(((2-(5,5-Dimethyl-1-cyclopenten-1-yl)-2′-fluoro-5′-(methyloxy)-1,1′-biphenyl-4-yl)methyl)oxy)-5-fluorophenyl)pentanoic acid or (3S)-3-(3-(((2-(5,5-dimethyl-1-cyclopenten-1-yl)-2′-fluoro-5′-(methyloxy)-1,1′-biphenyl-4-yl)methyl)oxy)-5-fluorophenyl)pentanoic acid], the values for the EC50 on GPR40 [1] and on GPR40 [2] were 10 to 100 nM and 100 to 1000 nM, respectively.
Regarding `CCC(CC(=O)O)c1cc(F)cc(OCc2cc(C3CCCC3(C)C)c(-c3cc(OC)ccc3F)cc2F)c1` (single isomer, unassigned) [Example 88.3], the figures for the EC50 on GPR40 [1] and on GPR40 [2] were below 10 nM and 100 to 1000 nM, respectively.
With `CCC(CC(=O)O)c1cc(F)cc(OCc2ccc(-c3cc(OC)ncc3F)c(C3CCCC3(C)C)c2)c1` (single isomer, unassigned) [Example 88.4], the EC50 was below 10 nM on GPR40 [1] and 100 to 1000 nM at GPR40 [2].
`COc1ccc(F)c(-c2ccc(COc3cc(F)cc(C(CC(=O)O)CC4CC4)c3)cc2C2CCCC2(C)C)c1` (single isomer, unassigned) [Example 89.1]: the EC50 at GPR40 [1] was below 10 nM; on GPR40 [2], 10 to 100 nM.
On to `COc1ccc(F)c(-c2ccc(COc3cc(F)cc(C(CC(=O)O)CC4CC4)c3)cc2C2=CCCC2(C)C)c1` (single isomer, unassigned) [Example 89.2, (3R)-4-Cyclopropyl-3-(3-(((2-(5,5-dimethyl-1-cyclopenten-1-yl)-2′-fluoro-5′-(methyloxy)-1,1′-biphenyl-4-yl)methyl)oxy)-5-fluorophenyl)butanoic acid or (3S)-4-cyclopropyl-3-(3-(((2-(5,5-dimethyl-1-cyclopenten-1-yl)-2′-fluoro-5′-(methyloxy)-1,1′-biphenyl-4-yl)methyl)oxy)-5-fluorophenyl)butanoic acid], for which the values for the concentration giving a half-maximal response (EC50) at GPR40 [1] and at GPR40 [2] were 10 to 100 nM and 100 to 1000 nM, respectively.
The corresponding values for `COc1ccc(F)c(-c2cc(F)c(COc3cc(F)cc(C(CC(=O)O)CC4CC4)c3)cc2C2CCCC2(C)C)c1` (single isomer, unassigned) [Example 89.3] are below 10 nM and 100 to 1000 nM.
Turning to `COc1cc(-c2ccc(COc3cc(F)cc(C(CC(=O)O)CC4CC4)c3)cc2C2CCCC2(C)C)c(F)cn1` (single isomer, unassigned) [Example 89.4], the EC50 on GPR40 [1] was below 10 nM; at GPR40 [2], 100 to 1000 nM.
With `CCC(CC(=O)O)c1cc(F)cc(OCc2ccc(-c3cc(OC)ccc3F)c(C3=CCCC3(C)C)c2)c1F` (single isomer, unassigned) [Example 90.1, (3R)-3-(3-(((2-(5,5-Dimethyl-1-cyclopenten-1-yl)-2′-fluoro-5′-(methyloxy)-1,1′-biphenyl-4-yl)methyl)oxy)-2,5-difluorophenyl)pentanoic acid or (3S)-3-(3-(((2-(5,5-dimethyl-1-cyclopenten-1-yl)-2′-fluoro-5′-(methyloxy)-1,1′-biphenyl-4-yl)methyl)oxy)-2,5-difluorophenyl)pentanoic acid], the EC50 lay within 10 to 100 nM at GPR40 [1] and 100 to 1000 nM at GPR40 [2].
With `CCC(CC(=O)O)c1cc(F)cc(OCc2ccc(-c3cc(OC)ccc3F)c(C3CCCC3(C)C)c2)c1F` (single isomer, unassigned) [Example 90.2], the EC50 on GPR40 [1] was below 10 nM; on GPR40 [2], 100 to 1000 nM.

What is called EC50 is the concentration giving half of the maximal effect.
